Columns and labels:
ER-α in MCF-7 cells = target: T1, ER-α in MCF-7 cells (Homo sapiens, UniProt P03372); test: Breast Cancer Cell ER-α In Cell Western Assay (SP1); format: cell-based; details: 4 or 24 hr post compound addition; for Emax: MCF7, SP1 antibody, read-out: ER-α In Cell Western Assay (SP1) Max Response; for DC50: SP1 antibody, read-out: ER-α In Cell Western Assay (SP1) IC50
T1 construct: endogenous in cells; host or cells: MCF-7
T1 sequence (P03372 1-595): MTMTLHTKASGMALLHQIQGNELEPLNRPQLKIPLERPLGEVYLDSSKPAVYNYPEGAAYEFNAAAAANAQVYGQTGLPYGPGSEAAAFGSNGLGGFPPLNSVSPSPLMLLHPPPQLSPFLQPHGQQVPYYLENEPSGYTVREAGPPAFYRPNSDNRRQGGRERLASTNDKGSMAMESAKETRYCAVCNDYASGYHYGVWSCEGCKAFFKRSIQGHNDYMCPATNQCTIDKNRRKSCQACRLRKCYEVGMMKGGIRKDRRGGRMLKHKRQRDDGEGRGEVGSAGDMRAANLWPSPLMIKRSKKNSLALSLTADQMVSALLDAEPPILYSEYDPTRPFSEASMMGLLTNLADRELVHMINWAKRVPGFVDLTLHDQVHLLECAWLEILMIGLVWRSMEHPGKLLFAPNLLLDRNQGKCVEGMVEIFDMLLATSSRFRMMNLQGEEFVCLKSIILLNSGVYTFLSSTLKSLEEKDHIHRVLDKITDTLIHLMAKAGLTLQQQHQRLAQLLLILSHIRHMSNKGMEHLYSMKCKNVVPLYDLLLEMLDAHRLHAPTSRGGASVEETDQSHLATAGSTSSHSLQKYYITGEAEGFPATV
Summary of the method: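 ER-α levels quantified by in-cell western: SP1 signal normalised to DRAQ5 DNA stain, relative to untreated cells (% ER). Compounds at 0.3–0.000003 μM final, 11-point semilog series, 4 or 24 h exposure of MCF-7 cells grown in charcoal-stripped serum.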

MCF-7 cells = test: Breast Cancer Cell Viability Assays (MCF-7, CellTiter-Glo); format: cell-based; details: 5 days' compound exposure; for IC50: Homo sapiens, MCF7, 120 h
Summary of the method: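 Percent viability, background-subtracted against untreated wells, was taken from CellTiter-Glo luminescence after 5 days' exposure of MCF-7 cells. Compounds were tested at eleven semilog concentrations, final 0.3–0.000003 μM, in RPMI containing 10% FBS.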

Structure (SMILES) | Emax (ER-α in MCF-7 cells) [%] | DC50 (ER-α in MCF-7 cells) [nM] | MCF7 Viability Assay Max Response (MCF-7 cells) | IC50 (MCF-7 cells) [nM]
CS(=O)(=O)c1ccccc1/C(=C(\c1ccc(/C=C/C(=O)O)cc1)c1ccc2scnc2c1)C1CCC1 [Example 197, (E)-3-(4-((E)-1-(Benzo[d]thiazol-5-yl)-2-cyclobutyl-2-(2-(methylsulfonyl)phenyl)vinyl)phenyl)acrylic acid] | ≥ 40 | ≤ 100 | ++ (++ = a single % value ≧ 40%) | ≤ 100
CSc1ccc(/C(=C(\c2ccc(/C=C/C(=O)O)cc2)c2ccc3[nH]nc(F)c3c2)C2CCC2)c(C)c1 [Example 72, (E)-3-(4-((E)-2-Cyclobutyl-1-(3-fluoro-1H-indazol-5-yl)-2-(2-methyl-4-(methylthio)phenyl)vinyl)phenyl)acrylic acid] | ≥ 40 | ≤ 100 | ++ (++ = a single % value ≧ 40%) | ≤ 100
COc1ncc(/C(=C(\c2ccc(/C=C/C(=O)O)cc2)c2ccc3[nH]nc(F)c3c2)C2CCC2)c(C(F)(F)F)n1 [Example 111, (E)-3-(4-((E)-2-Cyclobutyl-1-(3-fluoro-1H-indazol-5-yl)-2-(2-methoxy-4-(trifluoromethyl)pyrimidin-5-yl)vinyl)phenyl)acrylic acid] | ≥ 40 | ≤ 100 | ++ (++ = a single % value ≧ 40%) | ≤ 100
COc1ccc(/C(=C(\c2ccc(/C=C/C(=O)O)cc2)c2ccc3[nH]nc(F)c3c2)C2CC2)cc1 [Example 30, (E)-3-(4-((E)-2-Cyclopropyl-1-(3-fluoro-1H-indazol-5-yl)-2-(4-methoxyphenyl)vinyl)phenyl)acrylic acid] | ≥ 40 | ≤ 100 | ++ (++ = a single % value ≧ 40%) | ≤ 100
COc1cc(/C=C/C(=O)O)ccc1/C(=C(\c1ccccc1)C1CCC1)c1ccc2[nH]nc(F)c2c1 [Example 38, (E)-3-(4-((Z)-2-Cyclobutyl-1-(3-fluoro-1H-indazol-5-yl)-2-phenylvinyl)-3-methoxyphenyl)acrylic acid] | ≥ 40 | ≤ 100 | ++ (++ = a single % value ≧ 40%) | ≤ 100
O=C(O)/C=C/c1ccc(/C(=C(\c2ccncc2Cl)C2CC2)c2ccc3[nH]nc(F)c3c2)cc1 [Example 157, (E)-3-(4-((E)-2-(3-Chloropyridin-4-yl)-2-cyclopropyl-1-(3-fluoro-1H-indazol-5-yl)vinyl)phenyl)acrylic acid] | ≥ 40 | ≤ 100 | ++ (++ = a single % value ≧ 40%) | ≤ 100
N#Cc1c(/C(=C(/c2ccccc2)C2CCC2)c2ccc(/C=C/C(=O)O)cc2)ccc2scnc12 [Example 21, (E)-3-(4-((E)-1-(4-Cyanobenzo[d]thiazol-5-yl)-2-cyclobutyl-2-phenylvinyl)phenyl)acrylic acid] | ≥ 40 | ≤ 100 | ++ (++ = a single % value ≧ 40%) | ≤ 100
N#Cc1c(/C(=C(/c2ccccc2)C2CCC2)c2ccc(/C=C/C(=O)O)cc2)ccc2[nH]nc(F)c12 [Example 12, (E)-3-(4-((E)-1-(4-Cyano-3-fluoro-1H-indazol-5-yl)-2-cyclobutyl-2-phenylvinyl)phenyl)acrylic acid] | ≥ 40 | ≤ 100 | ++ (++ = a single % value ≧ 40%) | ≤ 100
O=C(O)/C=C/c1ccc(/C(=C(\c2ccc(F)cc2Cl)C2CC2)c2ccc3[nH]nc(F)c3c2)cc1 [Example 152, (E)-3-(4-((E)-2-(2-Chloro-4-fluorophenyl)-2-cyclopropyl-1-(3-fluoro-1H-indazol-5-yl)vinyl)phenyl)acrylic acid] | ≥ 40 | ≤ 100 | ++ (++ = a single % value ≧ 40%) | ≤ 100
